Measured values published in publication PMC12751012, “Nanoscale Direct-to-Biology Optimization and Structural Insights into Selective S. aureus TrmD Inhibitors” (Journal of Medicinal Chemistry, 2025).
Entries after “also recorded” stand apart in the source; their conditions may differ. Read-outs that look alike come from different tables or passages of the source.

Columns and labels:
S. aureus TrmD = target: T1, S. aureus TrmD (Staphylococcus aureus, UniProt Q2FZ43); experiment: Fluorescence polarization (FP) assay, tracer 4, S. aureus TrmD; format: binding
T1 construct: made in house; host or cells: E. coli BL21
T1 sequence (Q2FZ43 1-245): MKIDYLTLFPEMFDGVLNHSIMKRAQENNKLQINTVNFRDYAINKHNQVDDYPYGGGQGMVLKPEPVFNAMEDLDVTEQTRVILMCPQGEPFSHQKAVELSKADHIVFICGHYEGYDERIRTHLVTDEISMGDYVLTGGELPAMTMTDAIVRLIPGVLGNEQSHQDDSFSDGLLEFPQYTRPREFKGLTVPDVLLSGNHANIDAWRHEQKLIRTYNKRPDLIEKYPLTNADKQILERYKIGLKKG
Description: To enable the screening of hundreds of nanomole-scale synthesized compounds, the implementation of a high-throughput-capable RNA methyltransferase (MTase) assay is considered fundamental. […] In this assay format, a fluorescent, SAM-pocket binding tracer can be displaced by the compound under investigation, and the resulting change in fluorescence polarization defines the read-out of the inhibitor compound’s affinity (Figure A).
Fluorescence polarization (FP) assays were performed as follows. The assays for H. influenzae TrmD have been described previously. All assays were conducted in technical triplicate using black 96-well half area plates. For the FP assays, a tracer (20 nM Cy5TPD for E. coli and H. influenzae TrmD, 10 nM tracer 4 for S. aureus TrmD) was mixed with the respective enzyme (2 μM E. coli TrmD, 2 μM H. influenzae TrmD, 500 nM S. aureus TrmD) in buffer (E. coli and H. influenzae TrmD: 50 mM HEPES, 500 mM NaCl, 5% Glycerol, pH 7.5, S. aureus TrmD: 40 mM Tris HCl, 100 mM NaCl, 10 mM MgCl2, 5% Glycerol, pH 7.5). The compounds were added in varying concentrations for K D-value determination. […] The Z-factor for tracer 4 was determined by measuring 48 replicates of the free tracer (positive controls, PC) and 48 replicates of a mixture of enzyme and tracer (negative controls, NC). The Z-factor is defined in terms of the means (μ) and standard deviations (σ) of the positive and negative controls and calculated as Z = 1–(3*(σnc + σpc)/(μnc–μpc)). […] Polarization values (mP) were determined from polarization-specific parallel and orthogonal fluorescence intensities. K D-values were calculated in GraphPad Prism 8.0.1 using the four-parameter Hill equation: y(% tracer bound) = bottom + ([ligand]-slope) × (top–bottom)/([ligand]-slope + K Dslope).

human Trm5 = target: T2, human Trm5 (Homo sapiens, UniProt Q32P41); experiment: 3H-based MTase enzyme inhibition assay, Trm5; format: biochemical; conditions: 3H-based enzyme assay, screened at 30 μM
T2 construct: a truncated construct of Trm5 (aa 66–475), with flexible termini omitted; made in house; host or cells: E. coli Rosetta2 (DE3)
T2 sequence (Q32P41 66-475): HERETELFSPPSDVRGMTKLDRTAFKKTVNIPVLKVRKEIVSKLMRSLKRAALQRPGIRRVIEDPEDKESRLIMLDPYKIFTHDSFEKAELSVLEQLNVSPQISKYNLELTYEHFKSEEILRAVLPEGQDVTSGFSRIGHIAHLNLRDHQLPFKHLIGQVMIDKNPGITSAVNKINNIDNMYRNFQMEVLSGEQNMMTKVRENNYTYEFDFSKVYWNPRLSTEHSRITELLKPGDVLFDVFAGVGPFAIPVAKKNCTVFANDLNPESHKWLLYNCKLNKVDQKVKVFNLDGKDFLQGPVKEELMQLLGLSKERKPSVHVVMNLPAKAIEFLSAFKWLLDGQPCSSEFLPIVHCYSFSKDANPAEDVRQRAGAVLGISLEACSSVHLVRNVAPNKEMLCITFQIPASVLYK
Description: ^3H-based inhibition assays for TrmD S. aureus were performed in 50 mM HEPES, 5 mM MgCl2, 80 mM NaCl, 0.005% Tween-20, 1 mM DTT, pH 7.5 buffer; and for Trm5 in 100 mM Tris-HCl, 0.1 mM EDTA, 6 mM MgCl2, 100 mM KCl, 2 mM DTT, pH 7.4. The reaction mixture contained for S. aureus TrmD: 1 μM synthetic tRNA^Leu (Genscript, see above) and 100 nM S. aureus TrmD; For human Trm5:10 μM synthetic tRNA^Leu and 1.5 μM Trm5. Compounds were screened for S. aureus TrmD at 1 μM and for Trm5 at 30 μM. The enzymatic reactions were started by the addition of SAM as a mixture of ^3H-SAM (Hartmann Analytics, S. aureus TrmD: 0.5 μM, Trm5: 2 μM) and cold SAM (New England Biolabs, S. aureus TrmD: 0.5 μM, Trm5: 98 μM) to a final activity of 0.04 μCi μL^–1 (TrmD) or 0.16 μCi μL^–1 (Trm5). The reaction mixtures were incubated in duplicate for 60 min (TrmD)/30 min (Trm5) at 37 °C. As a negative control, the reaction mixture without the enzyme was used, and as a positive control, the reaction mixture without the test compound was used. After the enzyme incubation time, aliquots of 8 μL were taken from the reaction mixture and spotted on Whatman glass microfiber filters (GF/C, 25 mm). The tRNA was precipitated on the filters with 5% ice-cold TCA for 15 min. The filters were washed twice with 5% TCA at room temperature for 20 and 10 min, and once in EtOH for 10 min. After drying, the filters were transferred into scintillation vials with 3 mL of PerkinElmer Gold MV liquid scintillation cocktail. Scintillation was measured with a scintillation counter (TriCarb Liquid Scintillation Analyzer 4810TR; measurement time of 1 min).

S. aureus RN4220 = experiment: Bacterial growth inhibition assay, S. aureus RN4220; format: cell-based, Staphylococcus aureus; conditions: for effect on S. aureus RN4220 growth: 1, 10 and 100 μM, 24 h growth curves; for MIC: Staphylococcus aureus, read-out: MIC S. aureus
Description: (§1) Compounds were dissolved in DMSO to a final concentration of 20 mM. To determine the compound’s activity against different bacteria, a bacterial culture (E. coli ATCC10536, S. aureus RN4220) was set up to an optical density at 600 nm (OD600) of 0.05 from an overnight culture in Mueller-Hinton broth (Carl Roth). The compound was added in different concentrations ranging from […] to 1 μM. DMSO concentration was constantly adjusted to be 1% in the final culture. Cultures of 200 μL were incubated for 24 h at 37 °C in flat-bottom 96-well polystyrene culture plates (Greiner) using a BioTek Synergy H1 plate reader. Plates were incubated under constant shaking, and absorbance at 600 nm was measured every 20 min. The experiment was performed in three biological replicates with three technical replicates each.

E. coli ATCC10536 = experiment: Bacterial growth inhibition assay, E. coli ATCC10536; format: cell-based, Escherichia coli; conditions: for effect on E. coli growth: up to 100 μM, growth curves
Description: as §1

[1] = apparent affinity, purified compound, 500 nM TrmD, 10 nM tracer 4, read-out: KD S. aureus TrmD (FP displacement assay)

Row | SMILES | Kd (S. aureus TrmD; KD S. aureus TrmD (FP displacement assay), apparent affinity, purified compound, 500 nM TrmD, 10 nM tracer 4) | IC50 (human Trm5) | Kd (S. aureus TrmD; [1]) | effect on S. aureus RN4220 growth (S. aureus RN4220) | MIC (S. aureus RN4220; RN4220, 24 h) | effect on E. coli growth (E. coli ATCC10536) | MIC (S. aureus RN4220; RN4220, 24 h (1440 min)) | Kd (S. aureus TrmD; chromatographically purified compound, read-out: KD S. aureus TrmD (FP displacement assay)) | S. aureus TrmD binding (FP) (S. aureus TrmD; up to 100 μM) | E. coli growth rate (E. coli ATCC10536; highest concentration (100 μM))
1 | NC(N)=NCCn1cc(-c2c[nH]c3nc[nH]c(=O)c23)nn1 [Compound 8h] | 2480 ± 210 nM | > 30 µM |  |  |  |  |  |  |  | 
2 | N#Cc1cccc(Cn2cc(-c3c[nH]c4nc[nH]c(=O)c34)nn2)c1 [Compound 8b, 3-((4-(4-Oxo-4,7-dihydro-3H-pyrrolo[2,3-d]pyrimidin-5-yl)-1H-1,2,3-triazol-1-yl)methyl)benzonitrile] |  | > 30 µM | 1820 ± 130 nM | no pronounced effect on growth | > 100 µM | no pronounced effect on growth |  |  |  | 
3 | CC(C)(C)OC(=O)/N=C(\NCCn1cc(-c2c[nH]c3nc[nH]c(=O)c23)nn1)NC(=O)OC(C)(C)C [Compound 8g] |  | > 30 µM | 19800 nM |  |  | no significant growth inhibition | > 100 µM |  |  | 
4 | O=c1[nH]cnc2[nH]cc(-c3cn(Cc4ccc5ncccc5c4)nn3)c12 [Compound 8d, 5-(1-(Quinolin-6-ylmethyl)-1H-1,2,3-triazol-4-yl)-3,7-dihydro-4H-pyrrolo[2,3-d]pyrimidin-4-one] |  | > 30 µM | 720 ± 70 nM | no pronounced effect on growth |  | no pronounced effect on growth | > 100 µM | 725 ± 75 nM |  | 
5 | O=C(/N=C(\NCCn1cc(-c2c[nH]c3nc[nH]c(=O)c23)nn1)NC(=O)OCc1ccccc1)OCc1ccccc1 [Compound 8f] |  | > 30 µM | > 100000 nM | significant reduction in S. aureus growth; also recorded: significant effect on S. aureus bacteria in lower concentrations |  | no significant growth inhibition | 12.5 µM |  | no S. aureus TrmD binding | slight increase
6 | O=c1[nH]cnc2[nH]cc(-c3cn(CC4CCC5C(CC4)C5(F)F)nn3)c12 (stereo not shown) [Compound 8c, 5-(1-((8,8-Difluorobicyclo[5.1.0]octan-4-yl)methyl)-1H-1,2,3-triazol-4-yl)-3,7-dihydro-4H-pyrrolo[2,3-d]pyrimidin-4-one] |  | > 30 µM | 1050 ± 110 nM | no pronounced effect on growth |  | no pronounced effect on growth | > 100 µM |  |  | 
7 | N[C@@H]1CCC[C@@H]1Cn1cc(-c2c[nH]c3nc[nH]c(=O)c23)nn1 [Compound 8e, 5-(1-(((1R,2R)-2-Aminocyclopentyl)methyl)-1H-1,2,3-triazol-4-yl)-3,7-dihydro-4H-pyrrolo[2,3-d]pyrimidin-4-one] |  | > 30 µM | 1620 ± 240 nM | no pronounced effect on growth |  | no pronounced effect on growth | > 100 µM |  |  | 
